Source: patent US6489475B2, “Method of producing heterocyclic derivatives” (Sankyo Company, Limited, priority 1994, dated 2002)
Marks after values point to notes of the source that are not given here.

What was measured:
[1] = system: LDL; test: LDL peroxidation inhibitory effect (copper sulfate, malondialdehyde by thiobarbituric acid method); type: biochemical, rabbit; conditions: concentration 10^-5M; 37°C, 24 hours; malondialdehyde production inhibitory ratio
Protocol: LDL Peroxidation Inhibitory Effect
Male Japanese white rabbits weighing 2-2.5 kg were bred on 100 g per day of a high cholesterol feed [added with cholesterol (1%), Clea Japan, Inc.] for 4 weeks. The blood was taken from carotid and plasma was obtained. Then, LDL was fractionated from the plasma by ultracentrifugation, dialyzed for one day and preserved at 4° C. LDL (400 μg) and aqueous copper sulfate solution (final concentration 5 μM) were added to bufferized Ham F-10 medium (2 ml, GIBCO, USA). DMSO or a solution (20 μl) of test compound dissolved in DMSO was added and the mixture was incubated at 37° C. for 24 hours. After the completion of the incubation, LDL peroxide in medium was allowed to develop color by thiobarbituric acid method and assayed as malondialdehyde. The activity of the test compound was expressed as malondialdehyde production inhibitory ratio (%), namely, the proportion of inhibition of production of malondialdehyde as compared to control.

[2] = system: ACAT; test: ACAT inhibitory activity (small intestine mucosa microsomes, [1-14C]-oleoyl CoA, cholesteryl oleate production); type: biochemical, rabbit; conditions: inhibition of cholesteryl oleate production vs control
Protocol: A high cholesterol feed [a feed added with cholesterol (1%), Clea Japan, Inc.] was fed to male Japanese white rabbits weighing 2-2.5 kg at 100 g per day and the rabbits were bred for 4 weeks. The rabbits were killed by bleeding under anesthesia and small intestine was removed. The mucous membrane of small intestine was peeled, collected and homogenated. The homogenate was centrifuged at 4° C. and 10,000 rpm for 15 min. The obtained supernatant was further centrifuged at 4° C. and 41,000 rpm for 30 minutes to give microsomal fractions. Using this microsomal suspension as an enzyme sample, dimethyl sulfoxide (DMSO, 5 μl) or a test compound dissolved in DMSO (test compound solution, 5 μl), and a reaction substrate [1-^14C]-oleoyl CoA were added to a reaction buffer. After incubation at 37° C. for 5 minutes, a chloroform-methanol mixture was added to stop the reaction. Water was added thereto and mixed, and chloroform layer was separated. The solvent was evaporated to dryness, and the residue was dissolved in hexane. The mixture was subjected to thin layer chromatography using a silica gel plate. The spots of cholesteryl oleate on the silica gel plate were scraped, and quantitatively assayed on a liquid scintillation counter. The ACAT inhibitory activity of the test compound was expressed as a proportion (%) of inhibition of cholesteryl oleate, namely, the proportion of inhibition of cholesteryl oleate production as compared to control.

[3] = system: Male Wister rats; test: Serum total cholesterol reducing effect in rats on high cholesterol feed; type: in vivo; conditions: oral, once a day for 3 days, rat
Protocol: Serum Total Cholesterol Reducing Effect
Male Wister rats weighing 180-200 g were bred under free access to a high cholesterol feed [added with cholesterol (1%), cholic acid (0.5%) and coconut oil (10%), Clea Japan, Inc.] for 3 days, during which period a test compound (10-100 mg/kg) suspended in 5% gum arabic solution was forcibly administered once a day orally for 3 days. Only 5% gum arabic solution was administered to control animals. After final administration, the test animals were fasted for 5 hours and the blood was taken. The serum total cholesterol level was determined using a commercially available assay kit (cholesterol-E-Test Wako, Wako Pure Chemical Industries, Ltd.). The activity of the test compound was expressed as a proportion (%) of reduction of serum total cholesterol level, namely, the proportion of reduction of serum total cholesterol as compared to control.

[4] = system: plasma; test: Plasma lipoperoxidation inhibitory effect (copper sulfate, malondialdehyde by thiobarbituric acid method); type: biochemical, rabbit; conditions: concentration 10^-5M; 37°C, 3 hours; malondialdehyde production inhibitory ratio
Protocol: Plasma Lipoperoxidation Inhibitory Effect
The blood was taken from male Japanese white rabbits weighing 2-2.5 kg under anesthesia and heparinized plasma was separated by a conventional method. To the plasma (2.0 ml) was added DMSO or a solution (20 μl, final concentration 10^−5 M) of test compound dissolved in DMSO, and aqueous copper sulfate solution (final concentration 5 mM) was added immediately thereafter. The mixture was incubated at 37° C. for 3 hours. After the completion of the incubation, 20% trichloroacetic acid was added to stop the reaction. Then, the mixture was centrifuged at 4° C., 4,500 rpm for 15 minutes. The lipoperoxide in the supernatant thus obtained was assayed as malondialdehyde upon color development by thiobarbituric acid method. The activity of the test compound was expressed as malondialdehyde production inhibitory ratio (%), namely, the proportion of inhibition of production of malondialdehyde as compared to control.

Compound | Result of Exp. Ex. 3: LDL peroxidation inhibition [1] [%] | Result of Exp. Ex. 1: ACAT inhibition ([2]; concentration 10^-5M) | Result of Exp. Ex. 2: reduction of serum total cholesterol ([3]; dose 30 mg/kg/day) | Result of Exp. Ex. 4: plasma lipoperoxidation inhibition [4] [%] | Result of Exp. Ex. 2: reduction of serum total cholesterol ([3]; dose 10 mg/kg/day) | Result of Exp. Ex. 2: reduction of serum total cholesterol ([3]; dose 100 mg/kg/day) | Result of Exp. Ex. 1: ACAT inhibition ([2]; concentration 10^-4M)
CCCCC(C)(C)C(=O)Nc1c(C)cc(C)c2c1N(CC)CC2 [Example 6] | 24.8 | 99.8 ** % | 53.3 ** % | 37.4 |  |  | 
CCCCCCCCN1CCc2c(C)cc(C)c(NC(=O)C(C)(C)C)c21 [Example 11] | 91.6 | 99.2 ** % |  | 78.8 | 59.5 * % |  | 
CCCCCCN1CCc2c(C)cc(C)c(NC(=O)C(C)(C)CCCC)c21 [Example 14] | 88.3 | 96.6 ** % | 53.9 ** % | 93.1 |  |  | 
CCCCCCN1CCc2c(C)cc(C)c(NC(=O)C(C)(C)CO)c21 [Example 28] | 92.2 | 79.4 ** % |  | 91.1 |  | 20.8 *** % | 
CCOCCN1CCc2c(C)cc(C)c(NC(=O)C(C)(C)C)c21 [Example 24] | 42.2 | 97.1 ** % | 28.3 ** % | 90.5 |  |  | 
CCCCCCN1CCc2c(C)cc(C)c(NC(=O)C(C)(C)CCC(=O)O)c21 [Example 20] | 67.8 |  |  | 91.1 | 7.8 * % |  | 22.7 * %
CCCCCCN1CCc2c(C)cc(C)c(NC(=O)C(C)(C)CCCCCC)c21 [Example 15] | 12.3 | 93.1 ** % |  | 90.1 | 35.0 * % |  | 
CCCCCCC(C)(C)C(=O)Nc1c(C)cc(C)c2c1N(CCCC)CC2 [Example 10] | 18.3 | 98.7 ** % | 55.2 ** % | 82.6 |  |  | 
CCCCCCN1CCc2c1cc(C)c(NC(=O)C(C)(C)C)c2C [Example 2, N-(1-hexyl-4,6-dimethylindolin-5-yl)-2,2-dimethylpropanamide] | 99.5 | 59.9 ** % |  | 95.8 |  |  | 
CC(C)(Sc1cc(C(C)(C)C)c(O)c(C(C)(C)C)c1)Sc1cc(C(C)(C)C)c(O)c(C(C)(C)C)c1 [Probucol, 4,4′-isopropylidenedithiobis(2,6-di-t-butylphenol), reference compound] | 89.4 | 3.4 ** % |  | 87.5 | 7.3 * % |  | 
CC(=O)OCCN1CCc2c(C)cc(C)c(NC(=O)C(C)(C)C)c21 [Example 22] | 40.6 | 78.5 ** % |  | 92.8 |  | 38.6 *** % | 
CCCCN1CCc2c(C)cc(C)c(NC(=O)C(C)(C)C)c21 [Example 8] | 91.9 | 99.7 ** % | 48.0 ** % | 85.1 |  |  | 
CCCCCCN1CCc2c(C)cc(C)c(NC(=O)C(C)(C)COCC)c21 [Example 34] | 82.9 | 91.0 ** % | 50.2 ** % | 89.8 |  |  | 
COCCN1CCc2c(C)cc(C)c(NC(=O)C(C)(C)C)c21 [Example 23] | 54.8 | 88.8 ** % | 23.6 ** % | 90.5 |  |  | 
CCCCCCN1CCc2c(C)cc(C)c(NC(=O)C(C)C)c21 [Example 17] | 89.6 | 96.7 ** % |  | 91.1 | 27.0 * % |  | 
CCCCCCN1CCc2c(OC)cc(OC)c(NC(=O)C(C)(C)C)c21 [Example 7] | 86.6 | 96.2 ** % | 19.2 ** % | 86.4 |  |  | 
CCCCCCN1CCc2c1cc(C)c(NC(=O)NCCCC)c2C [Example 1, 1-butyl-3-(1-hexyl-4,6-dimethylindolin-5-yl)urea] | 99.2 | 76.6 ** % |  | 94.3 |  | 12.9 *** % | 
CCCCCCN1CCc2c(C)cc(C)c(NC(=O)CCCC)c21 [Example 21] | 92.1 | 94.4 ** % |  | 91.4 | 28.3 * % |  | 
Cc1cc(C)c(NC(=O)C(C)(C)C)c2c1CCN2CC(C)C [Example 32] | 85.3 | 93.9 ** % | 57.4 ** % | 89.1 |  |  | 
Cc1cc(C)c(NC(=O)N(Cc2ccc3c(c2)Cc2ccccc2-3)C2CCCCCC2)c(C)c1 [YM-750, 1-cycloheptyl-1-[(2-fluorenyl)methyl]-3-(2,4,6-trimethylphenyl)urea, reference compound] | 0 | 92.3 ** % | 43.8 ** % |  |  |  | 
Cc1cc(C)c(NC(=O)C(C)(C)C)c2c1CCN2CCC(C)C [Example 31] | 90.3 | 93.8 ** % | 49.0 ** % | 90.8 |  |  | 
CCCCCCN1CCc2c(C)cc(C)c(NC(=O)NCCCC)c21 [Example 4, 1-butyl-3-(1-hexyl-4,6-dimethylindolin-7-yl)urea] | 59.5 | 94.9 ** % | 21.4 ** % | 92.0 |  |  | 
CCCCCCN1CCc2c(C)cc(C)c(NC(=O)C(C)(C)COC(C)=O)c21 [Example 29] | 91.9 | 86.6 ** % | 6.9 ** % | 91.1 |  |  | 
CCCCCCC(C)(C)C(=O)Nc1c(C)cc(C)c2c1N(CC)CC2 [Example 13] | 82.4 | 96.0 ** % | 28.4 ** % | 87.1 |  |  | 
